Measurements from ChEMBL document CHEMBL1144588, “Synthesis and SAR of 3,5-diamino-piperidine derivatives: novel antibacterial translation inhibitors as aminoglycoside mimetics” (Bioorg Med Chem Lett, 2007).
Converted amounts (≈) assume the structure as drawn.

What was measured:
Staphylococcus aureus = assay: Antibacterial activity against Staphylococcus aureus ATCC 25923; type: functional
Pseudomonas aeruginosa = assay: Antimicrobial activity against Pseudomonas aeruginosa; type: functional
Escherichia coli = assay: Inhibition of protein synthesis in Escherichia coli by coupled transcription-translation assay; type: functional, organism-based

| SMILES | MIC (Staphylococcus aureus) [mg/L] | MIC90 (Pseudomonas aeruginosa) [mg/L] | IC50 (Escherichia coli) [µM] |
| --- | --- | --- | --- |
| N[C@@H]1C[C@H](N)CN(c2nc(Nc3ccc(NC(=O)c4ccc(Cl)cc4)c(O)c3)nc(N3C[C@H](N)C[C@H](N)C3)n2)C1 | 16 (≈ 28.2 µM) | 8 (≈ 14.1 µM) |  |
| N[C@@H]1C[C@H](N)CN(c2nc(Nc3ccc(Cl)c(Cl)c3)nc(N3C[C@H](N)C[C@H](N)C3)n2)C1 |  |  | 10 |
| NC1CCCN(c2nc(Nc3ccc(Cl)c(Cl)c3)nc(N3CCCC(N)C3)n2)C1 (centres undefined) |  |  | > 1000 |
| N[C@@H]1C[C@H](N)CN(c2ncnc(Nc3ccc(NC(=O)c4ccc5ccccc5c4O)cc3)n2)C1 |  |  | 16 |
| NCCN(CCN)c1nc(Nc2ccc(NC(=O)c3ccc(Cl)cc3)c(O)c2)nc(N2C[C@H](N)C[C@H](N)C2)n1 | 32 (≈ 57.5 µM) |  | 18 |
| N[C@@H]1C[C@H](N)CN(c2nc(Nc3ccc(NC(=O)c4ccc5ccccc5c4O)cc3)nc(N3C[C@@H](N)C[C@H]3CO)n2)C1 | 8 (≈ 13.7 µM) |  | 19 |
| NC1CN(c2nc(Nc3ccc(NC(=O)c4ccc(Cl)cc4)c(O)c3)nc(N3C[C@H](N)C[C@H](N)C3)n2)C1 |  |  | 14 |
| NC(=O)C1CCN(c2nc(Nc3ccc(NC(=O)c4ccc(Cl)cc4)c(O)c3)nc(N3C[C@H](N)C[C@H](N)C3)n2)CC1 |  |  | > 1000 |
| Cc1ccc(S(=O)(=O)N(Cc2ccccc2)c2ccc(Nc3nc(N4C[C@H](N)C[C@H](N)C4)nc(N4C[C@@H](N)[C@@H](N)C4)n3)cc2O)cc1 | 16 (≈ 24.2 µM) |  | 36 |
| NC[C@H]1[C@@H](O)CCN1c1nc(Nc2ccc(NC(=O)c3ccc4ccccc4c3O)cc2)nc(N2C[C@H](N)C[C@H](N)C2)n1 | 16 (≈ 27.4 µM) |  | 10 |
| N[C@@H]1C[C@H](N)CN(c2nc(Nc3ccc(NC(=O)c4ccc5ccccc5c4O)cc3)nc(N3CCCC(O)C3)n2)C1 (some centres undefined) | 16 (≈ 28.1 µM) |  | 310 |
| Cc1ccc(S(=O)(=O)N(Cc2ccccc2)c2ccc(Nc3nc(N4CCC(C(N)=O)CC4)nc(N4C[C@H](N)C[C@H](N)C4)n3)cc2O)cc1 |  |  | > 1000 |
| NC[C@H]1[C@@H](O)CCN1c1nc(Nc2ccc(NC(=O)c3ccc(Cl)cc3)c(O)c2)nc(N2C[C@H](N)C[C@H](N)C2)n1 | 32 (≈ 56.2 µM) |  | 19 |
| N[C@@H]1C[C@H](N)CN(c2nc(Nc3ccc(NC(=O)c4ccc(Cl)cc4)c(O)c3)nc(N3CCCC(O)C3)n2)C1 (some centres undefined) | 32 (≈ 57.8 µM) |  | 40 |
| Cc1ccc(S(=O)(=O)N(Cc2ccccc2)c2ccc(Nc3nc(N4CCCC(O)C4)nc(N4C[C@H](N)C[C@H](N)C4)n3)cc2O)cc1 (some centres undefined) | 8 (≈ 12.1 µM) |  | 44 |
| NC[C@@H]1CN(c2nc(Nc3ccc(NC(=O)c4ccc5ccccc5c4O)cc3)nc(N3C[C@H](N)C[C@H](N)C3)n2)CC[C@@H]1O | 16 (≈ 26.7 µM) |  | 21 |
| Cc1ccc(S(=O)(=O)N(Cc2ccccc2)c2ccc(Nc3nc(N4C[C@H](N)C[C@H](N)C4)nc(N4CC[C@H](O)[C@H](CN)C4)n3)cc2O)cc1 | 16 (≈ 23.2 µM) |  | 27 |
| Cc1ccc(S(=O)(=O)N(Cc2ccccc2)c2ccc(Nc3nc(N4C[C@H](N)C[C@H](N)C4)nc(N4C[C@@H](O)[C@@H](O)C4)n3)cc2O)cc1 | 32 (≈ 48.4 µM) |  | 43 |
| Cc1ccc(S(=O)(=O)N(Cc2ccccc2)c2ccc(Nc3nc(N4CC(N)C4)nc(N4C[C@H](N)C[C@H](N)C4)n3)cc2O)cc1 | 160 (≈ 254 µM) |  | 11 |
| NCCN(CCN)c1nc(Nc2ccc(NC(=O)c3ccc4ccccc4c3O)cc2)nc(N(CCN)CCN)n1 |  |  | 7 |
| CN[C@@H]1C[C@H](NC)CN(c2nc(Nc3ccc(Cl)c(Cl)c3)nc(N3C[C@H](NC)C[C@H](NC)C3)n2)C1 |  |  | 5 |
| N[C@@H]1C[C@H](N)CN(c2nc(Nc3ccc(NC(=O)c4ccc(Cl)cc4)c(O)c3)nc(N3C[C@@H](O)[C@@H](O)C3)n2)C1 | 64 (≈ 115 µM) |  | 77 |
| N[C@@H]1C[C@H](N)CN(c2nc(Nc3ccc(NC(=O)c4ccc5ccccc5c4O)cc3)nc(N3C[C@H](N)C[C@H](N)C3)n2)C1 |  |  | 7 |

| SMILES | MIC (Staphylococcus aureus) [mg/L] | MIC90 (Pseudomonas aeruginosa) [mg/L] | IC50 (Escherichia coli) [µM] |
| --- | --- | --- | --- |
| Cc1ccc(S(=O)(=O)N(Cc2ccccc2)c2ccc(Nc3nc(N4C[C@H](N)C[C@H](N)C4)nc(N4C[C@H](N)C[C@H](N)C4)n3)cc2O)cc1 | 8 (≈ 11.9 µM) |  | 3 |
| N[C@@H]1C[C@H](N)CN(c2nc(Nc3ccc(NC(=O)c4ccc(Cl)cc4)c(O)c3)nc(N3C[C@@H](N)C[C@@H](O)C3)n2)C1 | 64 (≈ 112 µM) |  | 40 |
| NC[C@@H]1CN(c2nc(Nc3ccc(NC(=O)c4ccc(Cl)cc4)c(O)c3)nc(N3C[C@H](N)C[C@H](N)C3)n2)CC[C@@H]1O | 32 (≈ 54.9 µM) |  | 31 |
| N[C@@H]1C[C@H](N)CN(c2nc(Nc3ccc(NC(=O)c4ccc5ccccc5c4O)cc3)nc(N3C[C@@H](N)C[C@@H](O)C3)n2)C1 | 8 (≈ 13.7 µM) |  | 17 |
| Cc1ccc(S(=O)(=O)N(Cc2ccccc2)c2ccc(Nc3nc(N4C[C@H](N)C[C@H](N)C4)nc(N4C[C@@H](N)C[C@@H](O)C4)n3)cc2O)cc1 | 16 (≈ 23.7 µM) |  | 17 |
| N[C@@H]1C[C@H](N)CN(c2nc(Nc3ccc(NC(=O)c4ccc(Cl)cc4)c(O)c3)nc(N3C[C@@H](N)C[C@H]3CO)n2)C1 | 32 (≈ 56.2 µM) |  | 13 |
| N[C@@H]1C[C@H](N)CN(c2nc(Nc3ccc(NC(=O)c4ccc(Cl)cc4)c(O)c3)nc(N3C[C@@H](N)[C@@H](N)C3)n2)C1 | 16 (≈ 28.9 µM) |  | 58 |
| N[C@@H]1C[C@H](O)CN(c2nc(Nc3ccc(NC(=O)c4ccc5ccccc5c4O)cc3)nc(N3C[C@@H](N)C[C@@H](O)C3)n2)C1 |  |  | 100 |
| NC[C@@H]1C[C@H](N)CN1c1nc(Nc2ccc(NC(=O)c3ccc4ccccc4c3O)cc2)nc(N2C[C@H](N)C[C@H](N)C2)n1 | 2 (≈ 3.43 µM) |  | 10 |
| Cc1ccc(S(=O)(=O)N(Cc2ccccc2)c2ccc(Nc3nc(N(CCN)CCN)nc(N4C[C@H](N)C[C@H](N)C4)n3)cc2O)cc1 | 8 (≈ 12.1 µM) |  | 1 |
| Cc1ccc(S(=O)(=O)N(Cc2ccccc2)c2ccc(Nc3nc(N4C[C@H](N)C[C@H](N)C4)nc(N4C[C@@H](N)C[C@H]4CN)n3)cc2O)cc1 | 2 (≈ 2.97 µM) |  | 13 |
| Cc1ccc(S(=O)(=O)N(Cc2ccccc2)c2ccc(Nc3nc(N4C[C@H](N)C[C@H](N)C4)nc(N4C[C@@H](N)C[C@H]4CO)n3)cc2O)cc1 | 8 (≈ 11.9 µM) |  | 15 |
| NC[C@@H]1C[C@H](N)CN1c1nc(Nc2ccc(NC(=O)c3ccc4ccccc4c3O)cc2)nc(N2C[C@H](N)C[C@@H]2CN)n1 |  |  | 8 |
| Cc1ccc(S(=O)(=O)N(Cc2ccccc2)c2ccc(Nc3nc(N4C[C@H](N)C[C@H](N)C4)nc(N4CC[C@H](O)[C@@H]4CN)n3)cc2O)cc1 | 8 (≈ 11.9 µM) |  | 21 |
| NC1CCN(c2nc(Nc3ccc(Cl)c(Cl)c3)nc(N3CCC(N)CC3)n2)CC1 |  |  | 800 |
| CN[C@@H]1C[C@H](NC)CN(c2nc(Nc3ccc(NC(=O)c4ccc5ccccc5c4O)cc3)nc(N3C[C@H](N)C[C@H](N)C3)n2)C1 | 8 (≈ 13.1 µM) |  | 8 |
| NC[C@@H]1C[C@H](CN)CN(c2nc(Nc3ccc(NC(=O)c4ccc5ccccc5c4O)cc3)nc(N3C[C@H](N)C[C@H](N)C3)n2)C1 | 4 (≈ 6.54 µM) |  | 8 |
| NC[C@@H]1C[C@H](CN)CN(c2nc(Nc3ccc(NC(=O)c4ccc(Cl)cc4)c(O)c3)nc(N3C[C@H](N)C[C@H](N)C3)n2)C1 | 16 (≈ 26.8 µM) |  | 11 |
| NC[C@@H]1C[C@H](N)CN1c1nc(Nc2ccc(NC(=O)c3ccc(Cl)cc3)c(O)c2)nc(N2C[C@H](N)C[C@H](N)C2)n1 | 32 (≈ 56.3 µM) |  | 12 |
| N[C@@H]1C[C@H](N)CN(c2nc(Nc3ccc(NC(=O)c4ccc5ccccc5c4O)cc3)nc(N3C[C@@H](O)[C@@H](O)C3)n2)C1 | 32 (≈ 56 µM) |  | 72 |
| Cc1ccc(S(=O)(=O)N(Cc2ccccc2)c2ccc(Nc3nc(N4C[C@H](N)C[C@H](N)C4)nc(N4C[C@H](CN)C[C@H](CN)C4)n3)cc2O)cc1 | 8 (≈ 11.4 µM) |  | 1 |
| NCCN(CCN)c1nc(Nc2ccc(NC(=O)c3ccc4ccccc4c3O)cc2)nc(N2C[C@H](N)C[C@H](N)C2)n1 | 8 (≈ 14 µM) |  | 10 |
| O=C(N[C@H](CO)[C@H](O)c1ccc([N+](=O)[O-])cc1)C(Cl)Cl [CHLORAMPHENICOL] | 8 (≈ 24.8 µM) |  |  |
